# According to US20230051589A1, “COMPOUNDS AND COMPOSITIONS FOR TREATING CONDITIONS ASSOCIATED WITH NLRP ACTIVITY” (Novartis AG, priority 2018, published 2023):
# System: IL-1β production in PMA-differentiated THP-1 cells
# Test: IL-1β production in PMA-differentiated THP-1 cells stimulated with gramicidin (hTHP-1 assay, 2% fetal bovine serum; Procedures 1-3)
# Format: cell-based, human
# Details: Table B3; hTHP-1 assay containing 2% fetal bovine serum, gramicidin stimulation, IL-1β readout; read-out: hTHP-1 IC50
# How it was run: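 PMA-primed THP-1 cells (20 ng/ml PMA, 16-18 h) in RPMI with 2% FBS were pre-incubated with compounds for 1 h, from 100 μM downward in 3-fold steps (0.37% DMSO final), then stimulated with 5 μM gramicidin for 2 h. IL-1β in the supernatant was quantified by HTRF.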
row,Compound,IC50 [µM]
1,"NS(=O)(=NC(=O)Nc1c2c(cc3c1CCC3)CCC2)c1ccc([C@H]2CCCN2)s1 (single isomer, unassigned) [Example 824, (S) or (R) -N′-((1,2,3,5,6,7-hexahydro-s-indacen-4-yl)carbamoyl)-5-((R)-pyrrolidin-2-yl)thiophene-2-sulfommidamide]",5 to 30
2,"CCn1ccc(S(N)(=O)=NC(=O)Nc2c3c(cc4c2CC4)CCC3)n1 (single isomer, unassigned) [Example 825]",0.04 to 0.2
3,"CCn1ccc(S(N)(=O)=NC(=O)Nc2c3c(cc4c2CC4)CCC3)n1 (single isomer, unassigned) [Example 826, (S) or (R) -1-ethyl-N′-((2,4,5,6-tetrahydro-1H-cyclobuta[f]inden-3-yl)carbamoyl)-1H-pyrazole-3-sulfonimidamide]",1 to 5
4,"CC(C)(O)c1ccnc(S(N)(=O)=NC(=O)Nc2c3c(c(C#N)c4c2CCC4)CCC3)c1 (single isomer, unassigned) [Example 827, (R) or (S)-N′-((8-cyano-1,2,3,5,6,7-hexahydro-s-indacen-4-yl)carbamoyl)-4-(2-hydroxypropan-2-yl)pyridine-2-sulfonimidamide]",0.2 to 1
5,"CC(C)(O)c1ccnc(S(N)(=O)=NC(=O)Nc2c3c(c(C#N)c4c2CCC4)CCC3)c1 (single isomer, unassigned) [Example 828, (S) or (R)-N′-((8-cyano-1,2,3,5,6,7-hexahydro-s-indacen-4-yl)carbamoyl)-4-(2-hydroxypropan-2-yl)pyridine-2-sulfonimidamide]",1 to 5
6,"CC(C)(CO)c1ncc(S(N)(=O)=NC(=O)Nc2c3c(c(C#N)c4c2CCC4)CCC3)s1 (single isomer, unassigned) [Example 829, (S) or (R)-N′-((8-cyano-1,2,3,5,6,7-hexahydro-s-indacen-4-yl)carbamoyl)-2-(1-hydroxy-2-methylpropan-2-yl)thiazole-5-sulfonimidamide]",1 to 5
7,"CC(C)(CO)c1ncc(S(N)(=O)=NC(=O)Nc2c3c(c(C#N)c4c2CCC4)CCC3)s1 (single isomer, unassigned) [Example 830, (R) or (S)-N′-((8-cyano-1,2,3,5,6,7-hexahydro-s-indacen-4-yl)carbamoyl)-2-(1-hydroxy-2-methylpropan-2-yl)thiazole-5-sulfonimidamide]",0.04 to 0.2
8,"CC(C)(O)c1ccc(S(N)(=O)=NC(=O)Nc2c3c(cc4c2C(=O)CC4)CCC3)cn1 (single isomer, unassigned) [Example 831, (S) or (R)-6-(2-hydroxypropan-2-yl)-N′-((3-oxo-1,2,3,5,6,7-hexahydro-s-indacen-4-yl)carbamoyl)pyridine-3-sulfonimidamide]",> 30

# Next, values leading:
row,IC50 [µM],Compound
1,0.2 to 1,"CC(C)(O)c1ccc(S(N)(=O)=NC(=O)Nc2c3c(cc4c2C(=O)CC4)CCC3)cn1 (single isomer, unassigned) [Example 832, (R) or (S)-6-(2-hydroxypropan-2-yl)-N′-((3-oxo-1,2,3,5,6,7-hexahydro-s-indacen-4-yl)carbamoyl)pyridine-3-sulfonimidamide]"
2,0.008 to 0.04,"NS(=O)(=NC(=O)Nc1c2c(cc3c1CC3)CCC2)c1sc2c(c1F)CNCC2 (single isomer, unassigned) [Example 833, (R) or (S)-3-fluoro-N′-((2,4,5,6-tetrahydro-1H-cyclobuta[f]inden-3-yl)carbamoyl)-4,5,6,7-tetrahydrothieno[3,2-c]pyridine-2-sulfonimidamide]"
3,0.2 to 1,"NS(=O)(=NC(=O)Nc1c2c(cc3c1CC3)CCC2)c1sc2c(c1F)CNCC2 (single isomer, unassigned) [Example 834, (S) or (R)-3-fluoro-N′-((2,4,5,6-tetrahydro-1H-cyclobuta[f]inden-3-yl)carbamoyl)-4,5,6,7-tetrahydrothieno[3,2-c]pyridine-2-sulfonimidamide]"
4,0.04 to 0.2,"CN1CCc2sc(S(N)(=O)=NC(=O)Nc3c4c(cc5c3CC5)CCC4)c(F)c2C1 (single isomer, unassigned) [Example 835, (R) or (S)-3-fluoro-5-methyl-N′-((2,4,5,6-tetrahydro-1H-cyclobuta[f]inden-3-yl)carbamoyl)-4,5,6,7-tetrahydrothieno[3,2-c]pyridine-2-sulfonimidamide]"
5,1 to 5,"CN1CCc2sc(S(N)(=O)=NC(=O)Nc3c4c(cc5c3CC5)CCC4)c(F)c2C1 (single isomer, unassigned) [Example 836, (S) or (R)-3-fluoro-5-methyl-N′-((2,4,5,6-tetrahydro-1H-cyclobuta[f]inden-3-yl)carbamoyl)-4,5,6,7-tetrahydrothieno[3,2-c]pyridine-2-sulfonimidamide]"
6,0.04 to 0.2,"CNCc1csc(S(N)(=O)=NC(=O)Nc2c3c(cc4c2CC4)CCC3)c1 (single isomer, unassigned) [Example 837, (R) or (S)-4-((methylamino)methyl)-N′-((2,4,5,6-tetrahydro-1H-cyclobuta[f]inden-3-yl)carbamoyl)thiophene-2-sulfonimidamide]"
7,0.2 to 1,"CNCc1csc(S(N)(=O)=NC(=O)Nc2c3c(cc4c2CC4)CCC3)c1 (single isomer, unassigned) [Example 838, (S) or (R)-4-((methylamino)methyl)-N′-((2,4,5,6-tetrahydro-1H-cyclobuta[f]inden-3-yl)carbamoyl)thiophene-2-sulfonimidamide]"
8,0.04 to 0.2,"NS(=O)(=NC(=O)Nc1c2c(cc3c1CC3)CCC2)c1nn(C(F)F)cc1F (single isomer, unassigned) [Example 839, (R) or (S)-1-(difluoromethyl)-4-fluoro-N′-((2,4,5,6-tetrahydro-1H-cyclobuta[f]inden-3-yl)carbamoyl)-1H-pyrazole-3-sulfonimidamide]"
9,1 to 5,"NS(=O)(=NC(=O)Nc1c2c(cc3c1CC3)CCC2)c1nn(C(F)F)cc1F (single isomer, unassigned) [Example 840, (S) or (R)-1-(difluoromethyl)-4-fluoro-N′-((2,4,5,6-tetrahydro-1H-cyclobuta[f]inden-3-yl)carbamoyl)-1H-pyrazole-3-sulfonimidamide]"
10,0.2 to 1,"NS(=O)(=NC(=O)Nc1c2c(cc3c1CC3)CCC2)c1sc2c(c1F)COCC2 (single isomer, unassigned) [Example 841, (R) or (S)-3-fluoro-N′-((2,4,5,6-tetrahydro-1H-cyclobuta[f]inden-3-yl)carbamoyl)-6,7-dihydro-4H-thieno[3,2-c]pyran-2-sulfonimidamide]"
11,5 to 30,"NS(=O)(=NC(=O)Nc1c2c(cc3c1CC3)CCC2)c1sc2c(c1F)COCC2 (single isomer, unassigned) [Example 842, (S) or (R)-3-fluoro-N′-((2,4,5,6-tetrahydro-1H-cyclobuta[f]inden-3-yl)carbamoyl)-6,7-dihydro-4H-thieno[3,2-c]pyran-2-sulfonimidamide]"
12,0.04 to 0.2,"NS(=O)(=NC(=O)Nc1c2c(cc3c1CC3)CCC2)c1sc(CN2CCC2)cc1F (single isomer, unassigned) [Example 843, (R) or (S)-5-(azetidin-1-ylmethyl)-3-fluoro-N′-((2,4,5,6-tetrahydro-1H-cyclobuta[f]inden-3-yl)carbamoyl)thiophene-2-sulfonimidamide]"
13,1 to 5,"NS(=O)(=NC(=O)Nc1c2c(cc3c1CC3)CCC2)c1sc(CN2CCC2)cc1F (single isomer, unassigned) [Example 844, (S) or (R)-5-(azetidin-1-ylmethyl)-3-fluoro-N′-((2,4,5,6-tetrahydro-1H-cyclobuta[f]inden-3-yl)carbamoyl)thiophene-2-sulfonimidamide]"
